# Tested on: HCV replicon (replicon cells)
# Assay: Replicon response to antiviral agent(s): luciferase replicon inhibition, combination of HCV inhibitor and therapeutic agent
# Type: cell-based
# Details: in combination with Cpd 661; range over the combination ratios (Cpd 661:agent) tested; replicon cells treated three days; luciferase (Bright Glo)
# Protocol: Replicon cells were seeded at 5000 cells/well in 96-well plates and were treated with a HCV inhibitor and/or a HCV therapeutic agent for three days. The growth medium consisted of a final concentration of 0.5% DMSO and 10% fetal bovine serum.
# The HCV therapeutic agents, an interferon-α, a NS5b HCV polymerase inhibitor Compound 1p and a NS3/NS4a HCV protease inhibitor Compound 2p in the compound treatment samples were each serially diluted to the concentration ratios indicated in Table 1. Replicon cells in the untreated control were not treated with a HCV inhibitor or therapeutic agent. To each concentration of therapeutic agent, the HCV inhibitor Compound 661 was titrated. After three days, Bright Glo agent was used to detect luciferase activity. The activity of the medium without cells was measured as the background control. Replicon inhibition was calculated using the following formula: […]
Compound,Combination Index IC50,Combination Index IC75,Combination Index IC90
"CC(C)CCn1c(=O)c(C2=Nc3ccccc3S(=O)(=O)N2)c(O)c2ccccc21 [Cpd 1p, 3-(1,1-dioxido-2H-1,2,4-benzothiadiazin-3-yl)-4-hydroxy-1-(3-methylbutyl)quinolin-2(1H)-one]",0.19-0.94,0.13-0.61,0.09-0.4
"C=C[C@H]1C[C@@]1(NC(=O)[C@@H]1C[C@@H](Oc2cc(-c3ccccc3)nc3cc(OC)ccc23)CN1C(=O)[C@@H](NC(=O)OC(C)(C)C)C(C)(C)C)C(=O)NS(=O)(=O)C1CC1 [Cpd 2p, N-(tert-butoxycarbonyl)-3-methyl-L-valyl-(4R)-N-{(1S,2R)-1-[(cyclopropylsulfonyl)carbamoyl]-2-ethenylcyclopropyl}-4-[(7-methoxy-2-phenylquinolin-4-yl)oxy]-L-prolinamide]",0.26-0.91,0.27-0.66,0.29-0.48
interferon-α,0.36-0.84,0.42-0.78,0.35-0.72
